PMC12566511, “The Evaluation of (1R,4R,7R,10R)-α,α′,α″,α‴-Tetramethyl-1,4,7,10-tetraazacyclododecane-1,4,7,10-tetraacetic Acid (DOTMA) as a Chelator for Zirconium-89” (Molecules, 2025)
Entries after “also recorded” stand apart in the source; their conditions may differ.

Tests used:
Assay type in all cases: physicochemical
[1] = In vitro EDTA challenge study; details: for % Intact of [^89Zr]Zr-Complex (n = 3): 37 °C, radio-ITLC
Protocol: The solutions (n = 3) were incubated at 37 °C for 7 days in a thermomixer. Samples were analyzed at 0, 1, 3, 5, and 7 days post administration to EDTA using radio-TLC, Varian ITLC-SA strips, 50 mM EDTA (pH 5) as the mobile phase, and gamma counting. All studies were performed in triplicate.

[2] = Partition coefficient (LogP), water/octanol partition method; details: octanol/water (pH 5.5), room temperature, n = 5
Protocol: The partition coefficient (LogP) was determined by adding 5 μL of [^89Zr]Zr-DOTMA (~5 μCi; 0.19 MBq) to a mixture of 500 μL of octanol and 500 μL of water (pH 5.5). The resulting solutions (n = 5) were vigorously vortexed for 5 min at room temperature, then centrifuged for 5 min to ensure complete separation of layers. From each of the five sets, a 50 μL aliquot was removed from each phase into new tubes and counted separately in a gamma counter. Each organic phase was washed with water to remove any radioactivity remaining in the organic phase before gamma counting. The partition coefficient was calculated as a ratio of counts in the octanol fraction to counts in the water fraction. The LogP values were reported as an average of five measurements.

[3] = In vitro metal competition study; details: for % Intact of [^89Zr]Zr-Complex (n = 3): PBS pH 7.4, 37 °C, radio-ITLC
Protocol: To separate solutions of metal cations (iron(III) chloride, cobalt(II) chloride, zinc(II) chloride, copper(II) chloride, magnesium(II) chloride, gallium(III) nitrate, and gadolinium(III) chloride) (1.0 mM, 200 μL), [^89Zr]Zr-DOTMA complex (0.1 mM, 20 μL, 110−119 μCi, 4.1–4.4 MBq) in PBS (pH 7.4) was added. The resulting solutions (n = 3) were incubated at 37 °C for 7 days in a thermomixer. Dissociation of ^89Zr from [^89Zr]Zr-DOTMA complex was monitored by radio-TLC at 0, 1, 3, 5, and 7 days using radio-TLC, Varian ITLC-SA strips, 50 mM EDTA (pH 5) as the mobile phase, and gamma counting. All studies were performed in triplicate.

With CC(C(=O)[O-])N1CCN(C(C)C(=O)[O-])CCN(C(C)C(=O)[O-])CCN(C(C)C(=O)[O-])CC1.[89Zr+4] (centres unmarked) [[^89Zr]Zr-DOTMA] the “stability to excess EDTA challenge (in words)” value ([1]; 1000-fold excess EDTA, pH 5 or pH 7, seven-day time course) was “inert; also recorded: stable”, the “% Intact of [^89Zr]Zr-Complex (n = 3)” value ([1]; EDTA 100-fold, pH 5.0, 0 h) was at least 99.99% and the “% Intact of [^89Zr]Zr-Complex (n = 3)” value ([1]; EDTA 100-fold, pH 5.0, 1 d) was at least 99.99%. The “% Intact of [^89Zr]Zr-Complex (n = 3)” value ([1]; EDTA 100-fold, pH 5.0, 3 d) was at least 99.99%, the “% Intact of [^89Zr]Zr-Complex (n = 3)” value ([1]; EDTA 100-fold, pH 5.0, 5 d) was at least 99.99% and the “% Intact of [^89Zr]Zr-Complex (n = 3)” value ([1]; EDTA 100-fold, pH 5.0, 7 d) was at least 99.99%. For the same molecule, the “% Intact of [^89Zr]Zr-Complex (n = 3)” value ([1]; EDTA 100-fold, pH 7.0, 0 h) was at least 99.99%, the “% Intact of [^89Zr]Zr-Complex (n = 3)” value ([1]; EDTA 100-fold, pH 7.0, 1 d) was at least 99.99% and the “% Intact of [^89Zr]Zr-Complex (n = 3)” value ([1]; EDTA 100-fold, pH 7.0, 3 d) was at least 99.99%. The “% Intact of [^89Zr]Zr-Complex (n = 3)” value ([1]; EDTA 100-fold, pH 7.0, 5 d) was at least 99.99%, the “% Intact of [^89Zr]Zr-Complex (n = 3)” value ([1]; EDTA 100-fold, pH 7.0, 7 d) was at least 99.99% and the “% Intact of [^89Zr]Zr-Complex (n = 3)” value ([1]; EDTA 500-fold, pH 5.0, 0 h) was at least 99.99%. The “% Intact of [^89Zr]Zr-Complex (n = 3)” value ([1]; EDTA 500-fold, pH 5.0, 1 d) was at least 99.99%, the “% Intact of [^89Zr]Zr-Complex (n = 3)” value ([1]; EDTA 500-fold, pH 5.0, 3 d) was at least 99.99% and the “% Intact of [^89Zr]Zr-Complex (n = 3)” value ([1]; EDTA 500-fold, pH 5.0, 5 d) was at least 99.99%. For the same molecule, the “% Intact of [^89Zr]Zr-Complex (n = 3)” value ([1]; EDTA 500-fold, pH 5.0, 7 d) was at least 99.99%, the “% Intact of [^89Zr]Zr-Complex (n = 3)” value ([1]; EDTA 500-fold, pH 7.0, 0 h) was at least 99.99% and the “% Intact of [^89Zr]Zr-Complex (n = 3)” value ([1]; EDTA 500-fold, pH 7.0, 1 d) was at least 99.99%. For the same molecule, the “% Intact of [^89Zr]Zr-Complex (n = 3)” value ([1]; EDTA 500-fold, pH 7.0, 3 d) was at least 99.99%, the “% Intact of [^89Zr]Zr-Complex (n = 3)” value ([1]; EDTA 500-fold, pH 7.0, 5 d) was at least 99.99% and the “% Intact of [^89Zr]Zr-Complex (n = 3)” value ([1]; EDTA 500-fold, pH 7.0, 7 d) was at least 99.99%. For the same molecule, the “% Intact of [^89Zr]Zr-Complex (n = 3)” value ([1]; EDTA 1000-fold, pH 5.0, 0 h) was at least 99.99%, the “% Intact of [^89Zr]Zr-Complex (n = 3)” value ([1]; EDTA 1000-fold, pH 5.0, 1 d) was at least 99.99% and the “% Intact of [^89Zr]Zr-Complex (n = 3)” value ([1]; EDTA 1000-fold, pH 5.0, 3 d) was at least 99.99%. The “% Intact of [^89Zr]Zr-Complex (n = 3)” value ([1]; EDTA 1000-fold, pH 5.0, 5 d) was at least 99.99%, the “% Intact of [^89Zr]Zr-Complex (n = 3)” value ([1]; EDTA 1000-fold, pH 5.0, 7 d) was at least 99.99% and the “% Intact of [^89Zr]Zr-Complex (n = 3)” value ([1]; EDTA 1000-fold, pH 7.0, 0 h) was at least 99.99%. For the same molecule, the “% Intact of [^89Zr]Zr-Complex (n = 3)” value ([1]; EDTA 1000-fold, pH 7.0, 1 d) was at least 99.99%, the “% Intact of [^89Zr]Zr-Complex (n = 3)” value ([1]; EDTA 1000-fold, pH 7.0, 3 d) was at least 99.99% and the “% Intact of [^89Zr]Zr-Complex (n = 3)” value ([1]; EDTA 1000-fold, pH 7.0, 5 d) was at least 99.99%. For the same molecule, the “% Intact of [^89Zr]Zr-Complex (n = 3)” value ([1]; EDTA 1000-fold, pH 7.0, 7 d) was at least 99.99%, the LogP [2] was −2.97± 0.02 and the “% Intact of [^89Zr]Zr-Complex (n = 3)” value ([3]; Co^2+, 0 h) was at least 99.99%. For the same molecule, the “% Intact of [^89Zr]Zr-Complex (n = 3)” value ([3]; Co^2+, 1 d) was at least 99.99%, the “% Intact of [^89Zr]Zr-Complex (n = 3)” value ([3]; Co^2+, 3 d) was at least 99.99% and the “% Intact of [^89Zr]Zr-Complex (n = 3)” value ([3]; Co^2+, 5 d) was at least 99.99%. The “% Intact of [^89Zr]Zr-Complex (n = 3)” value ([3]; Co^2+, 7 d) was at least 99.99%, the “% Intact of [^89Zr]Zr-Complex (n = 3)” value ([3]; Cu^2+, 0 h) was at least 99.99% and the “% Intact of [^89Zr]Zr-Complex (n = 3)” value ([3]; Cu^2+, 1 d) was at least 99.99%. For the same molecule, the “% Intact of [^89Zr]Zr-Complex (n = 3)” value ([3]; Cu^2+, 3 d) was at least 99.99%, the “% Intact of [^89Zr]Zr-Complex (n = 3)” value ([3]; Cu^2+, 5 d) was at least 99.99% and the “% Intact of [^89Zr]Zr-Complex (n = 3)” value ([3]; Cu^2+, 7 d) was at least 99.99%. For the same molecule, the “% Intact of [^89Zr]Zr-Complex (n = 3)” value ([3]; Fe^3+, 0 h) was at least 99.99%, the “% Intact of [^89Zr]Zr-Complex (n = 3)” value ([3]; Fe^3+, 1 d) was at least 99.99% and the “% Intact of [^89Zr]Zr-Complex (n = 3)” value ([3]; Fe^3+, 3 d) was at least 99.99%. For the same molecule, the “% Intact of [^89Zr]Zr-Complex (n = 3)” value ([3]; Fe^3+, 5 d) was at least 99.99%, the “% Intact of [^89Zr]Zr-Complex (n = 3)” value ([3]; Fe^3+, 7 d) was at least 99.99% and the “demetallation when challenged with high concentrations of metal ions (in words)” value ([3]; Fe^3+, Co^2+, Zn^2+, Cu^2+, Mg^2+, Ga^3+ or Gd^3+ ions, seven-day time course) was “inert; also recorded: no demetallation”. For the same molecule, the “% Intact of [^89Zr]Zr-Complex (n = 3)” value ([3]; Ga^3+, 0 h) was at least 99.99%, the “% Intact of [^89Zr]Zr-Complex (n = 3)” value ([3]; Ga^3+, 1 d) was at least 99.99% and the “% Intact of [^89Zr]Zr-Complex (n = 3)” value ([3]; Ga^3+, 3 d) was at least 99.99%. The “% Intact of [^89Zr]Zr-Complex (n = 3)” value ([3]; Ga^3+, 5 d) was at least 99.99%, the “% Intact of [^89Zr]Zr-Complex (n = 3)” value ([3]; Ga^3+, 7 d) was at least 99.99% and the “% Intact of [^89Zr]Zr-Complex (n = 3)” value ([3]; Gd^3+, 0 h) was at least 99.99%. The “% Intact of [^89Zr]Zr-Complex (n = 3)” value ([3]; Gd^3+, 1 d) was at least 99.99%, the “% Intact of [^89Zr]Zr-Complex (n = 3)” value ([3]; Gd^3+, 3 d) was at least 99.99% and the “% Intact of [^89Zr]Zr-Complex (n = 3)” value ([3]; Gd^3+, 5 d) was at least 99.99%. For the same molecule, the “% Intact of [^89Zr]Zr-Complex (n = 3)” value ([3]; Gd^3+, 7 d) was at least 99.99%, the “% Intact of [^89Zr]Zr-Complex (n = 3)” value ([3]; Mg^2+, 0 h) was at least 99.99% and the “% Intact of [^89Zr]Zr-Complex (n = 3)” value ([3]; Mg^2+, 1 d) was at least 99.99%. For the same molecule, the “% Intact of [^89Zr]Zr-Complex (n = 3)” value ([3]; Mg^2+, 3 d) was at least 99.99%, the “% Intact of [^89Zr]Zr-Complex (n = 3)” value ([3]; Mg^2+, 5 d) was at least 99.99% and the “% Intact of [^89Zr]Zr-Complex (n = 3)” value ([3]; Mg^2+, 7 d) was at least 99.99%. The “% Intact of [^89Zr]Zr-Complex (n = 3)” value ([3]; Zn^2+, 0 h) was at least 99.99%, the “% Intact of [^89Zr]Zr-Complex (n = 3)” value ([3]; Zn^2+, 1 d) was at least 99.99% and the “% Intact of [^89Zr]Zr-Complex (n = 3)” value ([3]; Zn^2+, 3 d) was at least 99.99%. For the same molecule, the “% Intact of [^89Zr]Zr-Complex (n = 3)” value ([3]; Zn^2+, 5 d) was at least 99.99% and the “% Intact of [^89Zr]Zr-Complex (n = 3)” value ([3]; Zn^2+, 7 d) was at least 99.99%.
